Test results from patent US7741436B2, “Biologically active peptides and their use for repairing injured nerves” (priority 2001, dated 2010).

Legend:
Type in all cases: cell-based
[1] = tested on: rat cerebellar granule neurons; test: Electrophysiology: voltage-clamped whole-cell patch recordings of currents induced by laminin-1-derived peptides and fusion proteins; settings: whole-cell patch clamp, neurons on laminin-1 substratum
Description: Sixteen-day pregnant Sprague-Dawley female rats were obtained from Taconic Farms, and maintained at the animal facility of National Institute of Alcohol Abuse and Alcoholism (NTH), fed with NTH-31 diet, containing 20,000 IU/kg vitamin A after autoclaving. The rats were allowed to give birth, and cerebellar tissues of 3-day-old female pups were aseptically isolated as described previously (Matsuzawa et al., 1996a). A suspension of single cells was obtained by trypsinizing the cerebella as described elsewhere (Liesi and Wright, 1996), after which 10^5 cells were plated on 22 mm glass coverslip pre-coated with laminin-1. The cells were incubated in an atmosphere of 95% air/5% CO2 at +37° C. in RPMI 1640 culture medium supplemented with penicillin and streptomycin and 200 μM L-glutamine. After 24 hrs, the cells were used for electrophysiology.
Recordings were done at room temperature using a List EPC-7 patch-clamp amplifier in voltage-clamped whole-cell patch configuration as described previously (Liesi and Wright, 1996). Pipettes were pulled from borosilicate glass and lightly fire polished. Experiments were performed at room temperature. Whole-cell currents were recorded on a Gould 2400S strip chart recorder. Cell membrane potential was clamped at −40 mV unless otherwise noted. All bath solutions were applied through pinch-valves that controlled the flow from multiple reservoirs to a single 200 μm ID barrel of fused silica. Standard bath solution was RPMI 1640, buffered with 10 mM HEPES (pH 7.4). The standard pipette solution contained (in mM): CsMeSO4 100, CsCl 15, BAPTA 5, HEPES 10 (pH KOH-adjusted to 7.2). Tests for reversal potentials were conducted in low K^+ bath solution containing (in mM): NaCl 150, KCl 5, CaCl2 1, HEPES 10 (pH adjusted to 7.2 with NaOH) and a high K^+ bath solution, containing (in mM): NaCl 115, KCl 40, CaCl2 1, HEPES 10 (pH adjusted to 7.2 with NaOH). All bath solutions contained 300 nM TTX. […] Nernst reversal potentials were calculated according to Hille (1992). […]

[2] = tested on: human CNS neurons; test: Attachment and neurite outgrowth of human embryonic CNS neurons on synthetic peptides coupled to glass; settings: 1 μg/ml, peptide coupled to glass, 24 hrs
Method: The cells were dissociated by trituration in a sterile culture medium (RPMI 1640) containing penicillin (100 U/ml), streptomycin (100 μg/ml) and 200 μM L-glutamine. The dissociated cells were plated on glass coverslips pre-coated (Liesi et al., 1989) with mouse laminin-1 (Boehringer-Mannheim, Germany) or with the peptides KDI-gc and RDIAEIIKDI-gc (SEQ ID NO: 1), as described elsewhere (Matsuzawa et al., 1996b). The peptides were from the Multiple Peptide Systems (La Jolla, Calif.). The cultures were maintained for 24 hrs, fixed in 2% paraformaldehyde, and processed for immunocytochemistry.
Immunocytochemistry for neuron specific tubulin isoform TUJ1 was performed as described elsewhere (Liesi et al., 2001). In short, the cells were permeabilized in methanol for 5 min at −20° C., washed in PBS and incubated with monoclonal TUJ1-antibodies for 1 hr at room temperature. The antibody was of high specificity and was used at 1:500 dilution. After immunocytochemistry, the coverslips were mounted in PBS:glycerol (1:1) and viewed with Olympus Provis fluorescence microscope with appropriate filter combinations.

[3] = tested on: human embryonic neocortical neurons; test: Survival of human embryonic neocortical neurons on injured glial cells of the human spinal cord; settings: 1 μg/ml soluble peptide, 72 hrs, vs lesion control
Description: The CNS tissues were first placed in cold saline. The spinal cord tissues were identified under a stereomicroscope, and carefully freed of meninges. To obtain monolayer cultures of human spinal cord glial cells, the cells were dissociated by mechanical trituration using a Pasteur-pipette, and placed in Petri dishes (Corning, N.Y., USA) containing 10% fetal calf serum (Hyclone, Logan, UH) in DMEM-F12 (Gibco, U.K.) supplemented with penicillin and streptomycin as described (Liesi et al. 2001).
Human embryonic spinal cord glial cells were cultured till confluency in 10% fetal bovine serum as described (Liesi et al., 2001). The confluent cultures were trypsinized and cells replated at 100 000 cells/22 mm glass coverslip, and grown till confluency. The confluent cultures were changed into normal adult human serum, and injured by using a 18 G gauge sterile needle. The KDI peptide was added at 1 μg/ml (3 μM) and at 10 μg/ml (30 μM) concentration and the P1543 peptide (p20) was added at a concentration of 1 μM, and 50-100 000 freshly isolated human embryonic neocortical neurons were added on the glial cells. The control cultures had neurons added either without the peptide or the lesion. The cells were cultured for 72 hrs in 5% CO2/95% air at +37° C., and fixed for quantitation of neurons and measurement of their neuritic lengths. The neurons on glial monolayers were visualized by immunostaining using mouse monoclonal antibodies against a neuron-specific tubulin isoform (TUJ1). The results were evaluated by counting neurons in six random fields on 3 different coverslip per experiment. In this way, more than 300 neurons were counted per experiment. Statistical analysis of the results was performed using one-way analysis of Varians (ANOVA) and Student-Newman-Keuls multiple comparisons test on the Instat (v2.03) program (GraphPad, San Diego, Calif.).

Row | Substance | induction of currents in cerebellar granule neurons [1] | attachment and neurite outgrowth of human CNS neurons [2] | attachment and neurite outgrowth of neocortical neurons on lesioned spinal cord glial cells [3]
1 | EIIKDI [6-amino acid peptide truncated from P1543] | induced currents |  | 
2 | RDIAEIIKDI [P1543, C-terminal neurite outgrowth decapeptide of the γ1-chain of laminin-1] | induced electrical currents | supported attachment and neurite outgrowth | significant (p<0.001) improvement
